In ChEMBL document CHEMBL1157422, “Phloroglucinols with antioxidant activity and xanthonolignoids from the heartwood of Hypericum geminiflorum” (J Nat Prod, 2008) one finds IC50, inhibition and Activity data, which are given here for three molecules.

The target in experiment [1] is Xanthine dehydrogenase/oxidase (Homo sapiens, UniProt P47989). The experiment in a line: Inhibition of xanthine oxidase.
The test system of experiment [2] is Radical scavenging activity. The experiment in a line: Antioxidant activity assessed as DPPH free radical scavenging at 300 uM. In kind it is functional. For orientation: DPPH is a stable violet radical that fades when it is reduced.
In another experiment the test system is Escherichia coli. In words: Inhibition of oxygen free radical-induced DNA damage of Escherichia coli plasmid DNA pBR322 by agarose gel electrophoresis.
Experiment [3] has as its system Radical scavenging activity. The experiment in a line: Antioxidant activity assessed as DPPH free radical scavenging. In kind it is functional.

Activity calls are given as the source filed them. No cut-off for these calls is given here.

Chain of Xanthine dehydrogenase/oxidase (P47989 whole entry): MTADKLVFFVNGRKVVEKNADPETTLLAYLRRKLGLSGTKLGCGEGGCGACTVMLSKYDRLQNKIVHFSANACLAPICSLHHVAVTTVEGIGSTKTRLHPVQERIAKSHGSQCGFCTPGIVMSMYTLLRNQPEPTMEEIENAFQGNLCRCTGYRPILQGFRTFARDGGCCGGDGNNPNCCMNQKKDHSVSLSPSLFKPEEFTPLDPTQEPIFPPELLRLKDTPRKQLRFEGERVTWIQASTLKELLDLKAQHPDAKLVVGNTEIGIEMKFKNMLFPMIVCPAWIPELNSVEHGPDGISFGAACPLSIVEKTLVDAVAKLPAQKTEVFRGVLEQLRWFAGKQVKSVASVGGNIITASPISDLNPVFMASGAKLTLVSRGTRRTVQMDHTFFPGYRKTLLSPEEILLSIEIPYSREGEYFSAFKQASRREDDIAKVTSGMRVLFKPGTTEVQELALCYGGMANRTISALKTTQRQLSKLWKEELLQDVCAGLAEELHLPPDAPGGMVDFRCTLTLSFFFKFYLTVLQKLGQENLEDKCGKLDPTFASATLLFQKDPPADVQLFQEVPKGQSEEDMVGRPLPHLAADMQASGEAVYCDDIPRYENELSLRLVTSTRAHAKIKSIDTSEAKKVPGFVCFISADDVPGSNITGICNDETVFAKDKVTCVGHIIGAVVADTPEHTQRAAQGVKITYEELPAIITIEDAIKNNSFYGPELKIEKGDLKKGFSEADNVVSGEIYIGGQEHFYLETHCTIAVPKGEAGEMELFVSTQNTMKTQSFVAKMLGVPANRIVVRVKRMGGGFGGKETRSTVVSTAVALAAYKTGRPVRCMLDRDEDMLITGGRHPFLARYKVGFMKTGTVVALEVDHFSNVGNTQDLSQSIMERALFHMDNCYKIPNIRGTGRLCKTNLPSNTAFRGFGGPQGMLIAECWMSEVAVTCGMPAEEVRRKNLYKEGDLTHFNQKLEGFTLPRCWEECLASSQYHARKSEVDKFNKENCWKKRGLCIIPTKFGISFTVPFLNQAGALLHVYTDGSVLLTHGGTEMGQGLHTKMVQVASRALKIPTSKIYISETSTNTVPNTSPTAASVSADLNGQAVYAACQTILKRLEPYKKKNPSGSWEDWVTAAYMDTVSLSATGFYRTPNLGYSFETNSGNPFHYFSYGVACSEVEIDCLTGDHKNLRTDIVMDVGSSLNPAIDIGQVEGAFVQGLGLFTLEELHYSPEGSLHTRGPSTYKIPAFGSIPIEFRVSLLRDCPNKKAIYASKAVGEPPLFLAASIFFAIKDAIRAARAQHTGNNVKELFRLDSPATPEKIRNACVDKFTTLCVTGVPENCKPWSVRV

`CCC(C)C(=O)C1=C(O)[C@@](C)(CC=C(C)C)C(=O)[C@@]2(C[C@H]3[C@H](CC[C@@]3(C)O)[C@](C)(O)C2)C1=O` (some centres not stated) [HYPERIELLIPTONE HB]: the IC50 (in general, the concentration needed to halve the response being measured) in experiment [1] was 42.1 µM. Besides, the inhibition – broadly, how much of the control response was suppressed – in experiment [2] was determined as 4.5%. For the same molecule, the result in the experiment on Escherichia coli was Active.

Consider `CCC(C)C(=O)C1=C(O)[C@]2(C[C@H]3[C@H](CC[C@@]3(C)O)[C@](C)(O)C2)C(=O)[C@](C)(CC=C(C)C)C1=O` (some centres not stated) [HYPERIELLIPTONE HB], for which, in experiment [1], the IC50 was found to be 42.1 µM. Also, the inhibition in experiment [2] was determined as 4.5%. Besides, the result with Escherichia coli was Active.

Take `Cc1c(C)c2c(c(C)c1O)CC[C@@](C)(CCCC(C)CCCC(C)CCCC(C)C)O2` (single isomer, unassigned) [ALPHA-TOCOPHEROL]: the concentration for half-maximal inhibition (IC50) in experiment [3] came out at 18.1 µM.
